According to publication PMC7033278, “A Nonpeptide Oxytocin Receptor Agonist for a Durable Relief of Inflammatory Pain” (Scientific Reports, 2020):

System: CFA-induced mechanical hyperalgesia
Assay: mechanical sensitivity, calibrated forceps, CFA model
Format: in vivo
Conditions: rat
Experimental: LIT-001 was prepared as described in Frantz et al.[20]. […] LIT-001 or vehicle were injected intraperitoneally (i.p.), in a volume of 10 ml/kg[20], 24 h after the induction of the CFA-induced painful inflammatory sensitization. To confirm the implication of the OTR we injected (i.p.) also L-368,899 (Sigma, St. Louis, MO) (1 mg/kg), an OTR antagonist, in combination with LIT-001 in another group of rats[11].
Male Wistar rats (300 g; JANVIER LABS, Le Genest St. Isle, France) were used for this study. They were housed by groups of 3 or 4 under standard conditions (room temperature, 22 °C; 12/12 h light/dark cycle) with ad libitum access to food and water and behavioral enrichment. All animals were manipulated and habituated to the tests and to the room for at least 2 weeks. All behavioral tests were done during the light period (i.e., between 7:00 and 19:00). All the procedures were performed in accordance with European committee council Direction, authorization from French Department of Agriculture and from the regional ethic committee.
In all experimentations, to test the animal mechanical sensitivity, we used a calibrated forceps (Bioseb, Chaville, France) previously developed in our laboratory (Figs. 2, 3 and S2, S3)[32]. Briefly, the habituated rat is loosely restrained with a towel masking the eyes in order to limit stress by environmental stimulations. The tips of the forceps are placed at each side of the paw and a graduate force is applied. The pressure producing a withdrawal of the paw, or in some rare cases a vocalization of the animal, corresponded to the nociceptive threshold value. This manipulation was performed three times for each hindpaw and the values were […].
In order to induce a peripheral inflammation, 100 μl of complete Freund adjuvant (CFA; Sigma, St. Louis, MO), was injected in the right hindpaw of the rat. All CFA injections were performed under light isoflurane anesthesia (3%).

[1] = i.p., D1 after CFA, measured 1 hour after injection

Cc1cc(C(=O)N2Cc3cnn(C)c3Nc3ccccc32)ccc1CNC(=O)N1CCC[C@H]1C(=S)N(C)C [LIT-001]
mechanical threshold, NaCl-injected hindpaw (control animals) (10 mg/kg i.p.): 526 ± 20 g | mechanical threshold, hindpaw contralateral to CFA (cCFA) (10 mg/kg i.p.): 531 ± 25 g | antinociceptive action on contralateral hindpaw (0.1-15 mg/kg i.p., mechanical and thermal heat, 1 hour after injection): none of the doses tested seem to exert an antinociceptive action | relative-to-baseline AUC, mechanical threshold, CFA-injected hindpaw (i.p. LIT-001 10 mg/kg at D1 after CFA): 152 ± 11% | mechanical threshold, CFA-injected hindpaw (i.p. LIT-001 10 mg/kg at D1 after CFA, 3 h post i.p.): 246 ± 22 g | dose at which analgesic effect reaches a plateau, mechanical hypersensitivity [1]: 10 mg/kg | dose of first analgesic action, mechanical hypersensitivity [1]: 5 mg/kg
